This note sets out measurements from patent US10093630B2, “Pyrazole compounds and methods of making and using same” (ABIDE THERAPEUTICS, INC., priority 2014, dated 2018).

Common to all, as to experiment: In vitro competitive activity-based protein profiling (gel-based, FP-Rh or HT-01 probe)
Holding throughout (assay type): biochemical

One assay concerns the target T1, ABHD6 (Mus musculus, UniProt Q8R2Y0).
T1 construct: Proteomes (mouse brain membrane fraction or cell lysates); from tissue; host or cells: mouse brain membrane fraction (or cell lysates, not specified)
T1 sequence (Q8R2Y0 1-336): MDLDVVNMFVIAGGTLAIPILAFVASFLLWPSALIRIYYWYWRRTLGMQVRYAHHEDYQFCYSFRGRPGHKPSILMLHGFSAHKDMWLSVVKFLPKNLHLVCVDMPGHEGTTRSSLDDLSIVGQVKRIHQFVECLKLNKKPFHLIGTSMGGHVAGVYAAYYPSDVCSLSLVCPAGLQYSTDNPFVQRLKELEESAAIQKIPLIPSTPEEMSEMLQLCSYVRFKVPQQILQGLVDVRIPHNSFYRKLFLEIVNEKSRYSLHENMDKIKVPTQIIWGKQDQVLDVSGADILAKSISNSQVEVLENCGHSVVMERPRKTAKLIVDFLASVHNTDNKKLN
The note with it: for inhibition at 1 µM: 1 μM inhibitor, read-out: % Inhibition at 1 μM, C = ABHD6; for inhibition at 10 µM: 10 μM inhibitor, read-out: % Inhibition at 10 μM, C = ABHD6; for IC50: mouse brain membrane fraction or cell lysates, 30 min preincubation at 37° C., read-out: Mouse (IC50 value, nM) ABHD6. The method, boiled down:
(§1)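 Mouse brain membrane proteome or cell lysate (1.0 mg/mL protein) was preincubated with inhibitor at varying concentrations for 30 min at 37° C, then labelled with FP-Rh or HT-01 for 30 min at 37° C. After SDS-PAGE, residual hydrolase activity was quantified as in-gel fluorescence of each band.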

The target of the next assay is T2, FAAH (Mus musculus, UniProt O08914).
T2 construct: Proteomes (mouse brain membrane fraction or cell lysates); from tissue; host or cells: mouse brain membrane fraction (or cell lysates, not specified)
T2 sequence (O08914 1-579): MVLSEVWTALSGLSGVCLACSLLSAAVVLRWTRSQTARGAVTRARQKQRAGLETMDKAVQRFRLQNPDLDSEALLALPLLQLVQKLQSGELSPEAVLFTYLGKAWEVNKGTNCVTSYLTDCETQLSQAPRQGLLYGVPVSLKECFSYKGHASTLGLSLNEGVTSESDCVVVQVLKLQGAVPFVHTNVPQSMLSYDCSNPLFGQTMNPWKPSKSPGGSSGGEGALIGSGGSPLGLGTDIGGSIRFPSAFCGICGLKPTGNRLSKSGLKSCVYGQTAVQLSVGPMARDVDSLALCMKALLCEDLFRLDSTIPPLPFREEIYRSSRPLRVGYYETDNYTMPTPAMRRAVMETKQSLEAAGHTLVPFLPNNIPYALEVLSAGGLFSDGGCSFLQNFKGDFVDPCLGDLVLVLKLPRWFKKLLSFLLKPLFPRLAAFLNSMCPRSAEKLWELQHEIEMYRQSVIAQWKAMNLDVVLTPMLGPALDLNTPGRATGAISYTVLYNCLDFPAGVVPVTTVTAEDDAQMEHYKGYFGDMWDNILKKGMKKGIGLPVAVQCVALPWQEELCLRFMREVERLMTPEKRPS
The note with it: for inhibition at 10 µM: 10 μM inhibitor, read-out: % Inhibition at 10 μM, B = FAAH; for inhibition at 1 µM: 1 μM inhibitor, read-out: % Inhibition at 1 μM, B = FAAH; for IC50: mouse brain membrane fraction or cell lysates, 30 min preincubation at 37° C., read-out: Mouse (IC50 value, nM) FAAH. The method, boiled down:
as §1

The next assay addresses T3, MAGL (Mus musculus, UniProt O35678).
T3 construct: Proteomes (mouse brain membrane fraction or cell lysates); from tissue; host or cells: mouse brain membrane fraction (or cell lysates, not specified)
T3 sequence (O35678 1-303): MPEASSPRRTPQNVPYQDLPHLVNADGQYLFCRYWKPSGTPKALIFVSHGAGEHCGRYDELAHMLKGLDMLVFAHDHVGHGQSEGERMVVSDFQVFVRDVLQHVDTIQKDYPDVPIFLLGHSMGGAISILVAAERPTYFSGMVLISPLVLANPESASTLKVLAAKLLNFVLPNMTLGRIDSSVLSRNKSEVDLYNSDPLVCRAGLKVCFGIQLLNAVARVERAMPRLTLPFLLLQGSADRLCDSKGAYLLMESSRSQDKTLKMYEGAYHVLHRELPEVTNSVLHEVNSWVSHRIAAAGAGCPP
The note with it: for inhibition at 10 µM: 10 μM inhibitor; for inhibition at 1 µM: 1 μM inhibitor; for IC50: mouse brain membrane fraction or cell lysates, 30 min preincubation at 37° C., read-out: Mouse (IC50 value, nM) MAGL. In outline:
as §1

The target of a further assay is T4, PLA2G7 (Mus musculus, UniProt Q60963).
T4 construct: Proteomes (mouse brain membrane fraction or cell lysates); from tissue; host or cells: mouse brain membrane fraction (or cell lysates, not specified)
T4 sequence (Q60963 22-440): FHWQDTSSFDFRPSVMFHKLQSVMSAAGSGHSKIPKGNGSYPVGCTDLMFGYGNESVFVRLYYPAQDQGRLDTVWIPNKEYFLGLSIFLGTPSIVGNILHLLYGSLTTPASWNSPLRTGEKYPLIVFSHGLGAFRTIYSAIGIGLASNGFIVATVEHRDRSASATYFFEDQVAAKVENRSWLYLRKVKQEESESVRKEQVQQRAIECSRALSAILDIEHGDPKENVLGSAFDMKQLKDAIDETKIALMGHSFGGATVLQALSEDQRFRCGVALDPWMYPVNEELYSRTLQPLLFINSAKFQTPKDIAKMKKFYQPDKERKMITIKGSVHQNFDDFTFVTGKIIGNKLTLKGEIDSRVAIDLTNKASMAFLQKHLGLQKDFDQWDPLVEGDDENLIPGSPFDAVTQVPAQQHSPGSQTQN
The conditions noted are these: for inhibition at 1 µM: 1 μM inhibitor, read-out: % Inhibition at 1 μM, D = PLA2G7; for inhibition at 10 µM: 10 μM inhibitor, read-out: % Inhibition at 10 μM, D = PLA2G7; for IC50: mouse brain membrane fraction or cell lysates, 30 min preincubation at 37° C. The method, boiled down: as §1

Where two headings read alike, the source gives them in different places. Where only a bound is given, the exact number is not on record here.

As usually defined, the inhibition is how much of the control response was suppressed. The term IC50 denotes the concentration that gives 50% inhibition.

On to `O=C(c1cnn(C(=O)N2CCN(Cc3nccs3)CC2)c1)N1CCOCC1` [Example 55, (4-(Morpholine-4-carbonyl)-1H-pyrazol-1-yl)(4-(thiazol-2-ylmethyl)piperazin-1-yl)methanone], for which the values for the inhibition at 1 µM on ABHD6 and on PLA2G7 were 25 to 75% and < 25%, respectively. In addition, the inhibition at 10 µM was > 75% on ABHD6, 25 to 75% at FAAH, < 25% at MAGL and > 75% on PLA2G7.

Take `O=C(c1cnn(C(=O)N2CCN(Cc3ccccn3)CC2)c1)N1CCC1` [Example 89, Azetidin-1-yl(1-(4-(pyridin-2-ylmethyl)piperazine-1-carbonyl)-1H-pyrazol-4-yl)methanone]: the inhibition at 10 µM on ABHD6 was 25 to 75%; at FAAH, > 75%; at MAGL, < 25%; on PLA2G7, > 75%.

Consider `CCN(Cc1ccccc1OC)C(=O)n1cc(Cl)cn1` [Example 127, 4-Chloro-N-ethyl-N-(2-methoxybenzyl)-1H-pyrazole-1-carboxamide], for which the inhibition at 1 µM on ABHD6, on FAAH, at MAGL and at PLA2G7 was < 25% each time. Besides, the inhibition at 10 µM was > 75% on ABHD6, > 75% on FAAH, > 75% at MAGL and < 25% at PLA2G7.

In the case of `COc1ccccc1-c1ccc(-c2cnn(C(=O)N3CCCC3)c2)cc1` [Example 107, (4-(2′-Methoxy-[1,1′-biphenyl]-4-yl)-1H-pyrazol-1-yl)(pyrrolidin-1-yl)methanone], the inhibition at 1 µM is > 75% on ABHD6, < 25% on FAAH, < 25% on MAGL and < 25% on PLA2G7. For the same molecule, the inhibition at 10 µM at ABHD6 is > 75%; at FAAH, < 25%; on MAGL, > 75%; at PLA2G7, 25 to 75%. The IC50 at ABHD6 is 100 to 1000 nM.

As to `CN(CCN(C)C(=O)n1cc(Cl)cn1)C(=O)c1ccccc1` [Example 194, 4-Chloro-N-methyl-N-(2-(N-methylbenzamido)ethyl)-1H-pyrazole-1-carboxamide], the inhibition at 1 µM is < 25% at ABHD6, 25 to 75% on FAAH, < 25% at MAGL and < 25% at PLA2G7. The inhibition at 10 µM was < 25% on ABHD6, > 75% at FAAH, 25 to 75% at MAGL and < 25% on PLA2G7.

On to `Cc1cc(N2CCN(C(=O)n3cc(C(F)(F)F)cn3)CC2)c2ccccc2n1` [Example 210, (4-(2-Methylquinolin-4-yl)piperazin-1-yl)(4-(trifluoromethyl)-1H-pyrazol-1-yl)methanone], for which the inhibition at 1 µM on ABHD6 was > 75%; at FAAH, > 75%; at MAGL it was > 75%; at PLA2G7, 25 to 75%. The inhibition at 10 µM on ABHD6, on FAAH, on MAGL and on PLA2G7 was > 75% each time. For the same molecule, the IC50 was 100 to 1000 nM on ABHD6, > 1000 nM at FAAH, < 100 nM on MAGL and < 100 nM at PLA2G7.

Take `CCN(Cc1ccc(Cl)cc1)C(=O)n1cc(C)cn1` [Example 254, N-(4-Chlorobenzyl)-N-ethyl-4-methyl-1H-pyrazole-1-carboxamide]: the inhibition at 1 µM at ABHD6 (gel-based competitive ABPP), at FAAH (gel-based competitive ABPP), at MAGL (gel-based competitive ABPP) and on PLA2G7 (gel-based competitive ABPP) was < 25% in each case.

Regarding `O=C(N1CCN(Cc2ccc(-c3ccccc3)cc2OCc2ccccc2)CC1)n1cc(Cl)cn1` [Example 148, (4-((3-(Benzyloxy)biphenyl-4-yl)methyl)piperazin-1-yl)(4-chloro-1H-pyrazol-1-yl)methanone], the inhibition at 1 µM was > 75% on ABHD6, > 75% on FAAH, > 75% on MAGL and < 25% on PLA2G7. Moreover, the inhibition at 10 µM was > 75% on ABHD6, > 75% at FAAH, > 75% at MAGL and < 25% at PLA2G7.

With `O=C(N1CCN(Cc2cccc(N3CCCC3)c2)CC1)n1cc(C(F)(F)F)cn1` [Example 273, (4-(3-(Pyrrolidin-1-yl)benzyl)piperazin-1-yl)(4-(trifluoromethyl)-1H-pyrazol-1-yl)methanone], the inhibition at 1 µM at ABHD6 (gel-based competitive ABPP), on FAAH (gel-based competitive ABPP), at MAGL (gel-based competitive ABPP) and at PLA2G7 (gel-based competitive ABPP) was > 75% each time. Also, the half-inhibitory concentration (IC50) on ABHD6, at FAAH, on MAGL and at PLA2G7 was < 100 nM throughout.

Take `O=C(c1cnn(C(=O)N2CCN(Cc3ccccn3)CC2)c1)N1CCOCC1` [Example 77, (4-(Morpholine-4-carbonyl)-1H-pyrazol-1-yl)(4-(pyridin-2-ylmethyl)piperazin-1-yl)methanone]: the inhibition at 1 µM at ABHD6 and at PLA2G7 was < 25% each time. The inhibition at 10 µM at ABHD6 was > 75%; on FAAH it was < 25%; on MAGL it was < 25%; at PLA2G7 it was > 75%.

Turning to `CC(=O)N1CCCN(C(=O)n2cc(C(F)(F)F)cn2)CC1` [Example 154, 1-(4-(4-(trifluoromethyl)-1H-pyrazole-1-carbonyl)-1,4-diazepan-1-yl)ethanone], the inhibition at 1 µM on ABHD6 was < 25%; on FAAH, < 25%; at MAGL, < 25%; at PLA2G7 it was 25 to 75%. In addition, the inhibition at 10 µM on ABHD6 was > 75%; at FAAH, 25 to 75%; at MAGL, < 25%; at PLA2G7 it was > 75%.

In the case of `Cc1cnn(C(=O)N2CCCCC2)c1` [Example 2, (4-Methyl-1H-pyrazol-1-yl)(piperidin-1-yl)methanone], the inhibition at 1 µM was 25 to 75% at ABHD6, < 25% at FAAH, < 25% at MAGL and < 25% on PLA2G7. In addition, the inhibition at 10 µM is > 75% at ABHD6, > 75% at FAAH, 25 to 75% on MAGL and > 75% on PLA2G7.
